# Results published in patent publication US10342796B2, “Acrylanilide derivative, preparation method, and applications thereof in pharmacy” (Ancureall Pharmaceutical (Shanghai) Co., Ltd., priority 2015, dated 2019).
# Read-outs that look alike come from different tables or passages of the source.
# Experiments:
# Assay in all cases: Growth inhibition GI50 in vitro (CCK8/MTT, 72 h)
# A549 (EGFR WT) = type: cell-based, human; conditions: Homo sapiens, A549
# H1975 (EGFR L858R/T790M) = type: cell-based, human; conditions: Homo sapiens, NCI-H1975
# PC-9 (EGFR dE746-A750) = type: cell-based, human; conditions: Homo sapiens
# Calu-3 (Her2 amp) = type: cell-based; conditions: Homo sapiens, Calu-3; Table 16; 1000 nM to 0.03 nM serial dilution; read-out: GI50 Calu3 (HER2 amp)
# Method: (§1) Human lung adenocarcinoma cell line Calu-3 (ATCC) was cultured with 1×MEM complete medium (10% FBS, 1% double-antibiotics, 1% NEAA (Gibco), 2 mM glutamine and 1 mM of sodium pyruvate). Human breast cancer cell line SK-BR-3 was cultured with McCOY'S5A complete medium (10% FBS). Human colon cancer cell line SNU1040 (HER2 V777M positive) (ATCC) and human bronchoalveolar adenocarcinoma cell line NCI-H1781 (expressing HER2 exon 20 G776VC mutation) (ATCC) were cultured with 1×RPMI1640 complete medium (10% FBS), respectively.
# (§2) The suspension cells were collected by centrifugation. The supernatant was discard and the cell pellet was resuspended and counted. Different cell concentrations (5˜10×10^4 cells/mL) were prepared according to the growth cycle of each cell line and then seeded on a 96-well plate (Corning), 100 μL/well. The cells were incubated over night at 37° C., 5% CO2. The compounds were added to the cells on the second day with 2 wells in parallel. The final concentration of organic solvent shall not exceed 1%. The cells were continually incubated for 72 h, and then subjected to MTT assay.
# (§3) The present compounds and the reference compounds were dissolved with DMSO (Sigma), respectively. […] The storage concentration of compounds was 10 mM and kept at −20° C. They were diluted by 2 times or 10 times with serial dilution before using.
# (§4) Dojindo CCK8 reagent kit was used as MTT assay. […] FC meter was used as microplate reader.
# (§5) Adherent cell culture medium was discard and immediately replaced with fresh prepared medium which contains 10% CCK8 reagent (100 μL/well). For the suspension cells, CCK8 was directly added to 10% of the final concentration. The cells were continually incubated for 1˜4 h. When the color of control wells turned to dark yellow, the absorption value was measured at OD450 nm. The cell growth rate was calculated according to the following formula: cell growth rate (%)=100*(T−T0)/(C−T0), T=optical density of drug treatment cell well—optical density of blank control well; T0=optical density of cell well before drug treatment—optical density of blank control well; C=optical density of cell well of solvent control group—optical density of blank control well. […] The experiment was independently repeated 1˜3 times, and subject to biological statistical analysis.
# [1] = system: NCI-H1781 (HER2 exon 20 G776VC mutation); type: cell-based; conditions: Homo sapiens, NCI-H1781; Table 16; 1000 nM to 0.03 nM serial dilution; read-out: GI50 H1781 (HER2 G776VC)
# Method: as §1
# as §2, with “Adherent cells were digested with 0.25% pancreatin-EDTA (Gibco). The suspension” for “The suspension”
# as §3, §4
# (§6) Adherent cell culture medium was discard and immediately replaced with fresh prepared medium which contains 10% CCK8 reagent (100 μL/well). For the suspension cells, CCK8 was directly added to 10% of the final concentration. The cells were continually incubated for 1˜4 h. When the color of control wells turned to dark yellow, the absorption value was measured at OD450 nm. The cell growth rate was calculated according to the following formula: cell growth rate (%)=100*(T−T0)/(C−T0), T=optical density of drug treatment cell well—optical density of blank control well; T0=optical density of cell well before drug treatment—optical density of blank control well; C=optical density of cell well of solvent control group—optical density of blank control well. The concentration value of 50% inhibition of cell growth (GI50) was calculated. The experiment was independently repeated 1˜3 times, and subject to biological statistical analysis.
# (§7) Furthermore, the present compounds (99, 136, 205, 211, 212, 213, 216, 229, 230, 231, 232, 233 and 236) were selected to carry out growth inhibition test for HER2/ERBB2 gene amplified or high expressed or mutant tumor cells. Afatinib and AZD9291 were used for references as second- and third-generation inhibitors of EGFR.
# (§8) Each compound started at 1000 nM as an initial concentration and was diluted by 2 times with serial dilution to 0.03 nM. The GI50 value of each compound was calculated according to Test Example 1.3.
# [2] = system: SNU1040 (HER2 V777M positive); type: cell-based; conditions: Homo sapiens; Table 16; 1000 nM to 0.03 nM serial dilution; read-out: GI50 SNU-1040 (HER2 V777M)
# Method: as §1
# as §2, with “Adherent cells were digested with 0.25% pancreatin-EDTA (Gibco). The suspension” for “The suspension”
# as §3, §4, §6, §7, §8
# N87 (HER2 Amp) = type: cell-based, human; conditions: Homo sapiens
# [3] = system: SW48 (EGFR G719S positive); type: cell-based; conditions: Homo sapiens, SW48; Table 15; 1000 nM to 0.03 nM serial dilution; read-out: GI50 SW48 (EGFR G719S)
# Method: PC-9ER is an acquired Erlotinib resistance cell line of PC-9 cells developed by the investor. […] The four cell lines above were cultured with 1×RPMI1640 complete medium (supplement with 10% FBS). Human colon cancer cell line SW48 (EGFR G719S positive, ATCC). was cultured with L15 complete medium (10% FB S).
# as §2, §3, §4, §5
# Each compound started at 1000 nM as an initial concentration and was diluted by […] with serial dilution to 0.03 nM.
# H292 (EGFR WT) = type: cell-based; conditions: Homo sapiens, NCI-H292; Table 15; 1000 nM to 0.03 nM serial dilution; read-out: GI50 H292 (EGFR WT)
# From the text: EGFR wild type cell lines: human epidermal cancer cell line A431 (EGFR WT, amplification and high expression, from Shanghai Cell Bank of Chinese Academy of Sciences and ATCC), NSCLC cell lines NCI-H460 (EGFR WT, Kras G61H and PI3KCA E545K mutants, ATCC) and NCI-H1299 (EGFR WT, ATCC), melanoma cell line A375 (EGFR WT and BRAF V600E mutant, from Shanghai Cell Bank of Chinese Academy of Sciences, ATCC), human lung cancer cell line NCI-H292 (EGFR WT, from human lung mucoepidermoid carcinoma/lymphatic metastasis, purchased from Shanghai Cell Bank of Chinese Academy of Sciences) were cultured with 1×RPMI1640 complete medium which was supplement with 10% FBS. NSCLC cell line A549 (EGFR WT and Kras G12S mutant, from Shanghai Cell Bank of Chinese Academy of Sciences) was cultured with 1×Ham'S F12K complete medium which was supplement with 10% FBS, 1% double-antibiotics and 2 mM glutamine.
# as §2, §3, §4, §5
# [4] = Table 13, 72 h, read-out: Range of GI50 A549 (EGFR WT)
# [5] = Table 15, 1000 nM to 0.03 nM serial dilution, read-out: GI50 A549 (EGFR WT)
# [6] = Table 13, 72 h, read-out: Range of GI50 H1975 (EGFR L858R/T790M)
# [7] = Table 15, 1000 nM to 0.03 nM serial dilution, read-out: GI50 H1975 (EGFR L858R/T790M)
# [8] = Table 13, 72 h, read-out: Range of GI50 PC-9 (EGFR dE746-A750)
# [9] = Table 15, 1000 nM to 0.03 nM serial dilution, read-out: GI50 PC-9 (EGFR dE746-A750)
# [10] = Table 13, 72 h, read-out: Range of GI50 N87 (HER2 Amp)
# [11] = Table 16, 1000 nM to 0.03 nM serial dilution, read-out: GI50 N87 (HER2 amp)
Compound,GI50 (A549 (EGFR WT); [4]),GI50 (A549 (EGFR WT); [5]),GI50 (H1975 (EGFR L858R/T790M); [6]),GI50 (H1975 (EGFR L858R/T790M); [7]),GI50 (PC-9 (EGFR dE746-A750); [8]),GI50 (PC-9 (EGFR dE746-A750); [9]),GI50 (Calu-3 (Her2 amp)),GI50 [1],GI50 [2],GI50 (N87 (HER2 Amp); [10]),GI50 (N87 (HER2 Amp); [11]),GI50 [3],GI50 (H292 (EGFR WT))
"C=CC(=O)Nc1cc(Nc2cc(Nc3cc(F)cc(C(F)(F)F)c3)ncn2)c(OC)cc1N(C)CCN(C)C [Compound 230, N-(5-(6-(5-fluoro-3-trifluoromethyl-phenylamino)-pyrimidin-4-yl-amino)-2-((2-dimethylamino-ethyl)-methyl-amino)-4-methoxyl-phenyl)-acrylamide]",> 1000 nM,> 1000 nM,10 to 100 nM,19 nM,< 10 nM,0.37 nM,2.67 nM,1.91 nM,13.2 nM,< 10 nM,3.9 nM,5.87 nM,> 1000 nM
"C=CC(=O)Nc1cc(Nc2cc(Nc3cc(C(F)(F)F)ccc3F)ncn2)c(OC)cc1N(C)CCN(C)C [Compound 231, N-(5-(6-(2-fluoro-5-trifluoromethyl-phenylamino)-pyrimidin-4-yl-amino)-2-((2-dimethylamino-ethyl)-methyl-amino)-4-methoxyl-phenyl)-acrylamide]",> 1000 nM,> 1000 nM,10 to 100 nM,19.5 nM,< 10 nM,0.19 nM,5.6 nM,1.79 nM,6.75 nM,< 10 nM,4.21 nM,3.13 nM,> 1000 nM
"C=CC(=O)Nc1cc(Nc2cc(Nc3cc(OC)cc(C(F)(F)F)c3)ncn2)c(OC)cc1N(C)CCN(C)C [Compound 232, N-(5-(6-(3-methoxyl-5-trifluoromethyl-phenylamino)-pyrimidin-4-yl-amino)-2-((2-dimethylamino-ethyl)-methyl-amino)-4-methoxyl-phenyl)-acrylamide]",> 1000 nM,> 1000 nM,10 to 100 nM,16.9 nM,< 10 nM,2.43 nM,2.49 nM,1.02 nM,6.82 nM,< 10 nM,1.92 nM,4.87 nM,> 1000 nM
